According to US11414432B2, “Condensed bicyclic heterocyclic derivatives as pest control agents” (Bayer Aktiengesellschaft, priority 2018, dated 2022):

Tests used:
[1] = log P by HPLC on reversed-phase column (C18), acidic range; assay type: physicochemical; conditions: formic acid in water/acetonitrile, LC-UV
Method: The log P values were determined according to EEC Directive 79/831 Annex V.A8 by HPLC (high-performance liquid chromatography) on a reversed-phase column (C18) using the following methods: ^[a] […] Calibration was carried out using a homologous series of straight-chain alkan-2-ones (having 3 to 16 carbon atoms) with known log P values. The values between successive alkanones are determined by linear regression.

Ctenocephalides felis = Ctenocephalides felis oral test; assay type: in vivo; conditions: adult cat fleas, oral via citrated cattle blood, 100 ppm, after 2 days
Method: Ctenocephalides felis—Oral Test
Solvent: dimethyl sulfoxide
To produce a suitable active compound formulation, 10 mg of active compound are mixed with 0.5 ml of dimethyl sulfoxide. Dilution with citrated cattle blood gives the desired concentration.
About 20 unfed adult cat fleas (Ctenocephalides felis) are placed into a chamber which is closed at the top and bottom with gauze. A metal cylinder whose bottom end is closed with parafilm is placed onto the chamber. The cylinder contains the blood/active compound formulation, which can be imbibed by the fleas through the parafilm membrane.
After 2 days, the kill in % is determined. 100% means that all of the fleas have been killed; 0% means that none of the fleas have been killed.

Meloidogyne incognita = Meloidogyne incognita test; assay type: in vivo; conditions: lettuce in sand, egg/larvae suspension, 20 ppm, after 14 days
Method: Meloidogyne incognita Test Solvent: 125.0 parts by weight of acetone To produce a suitable active compound formulation, 1 part by weight of active compound is mixed with the stated amount of solvent and the concentrate is diluted to the desired concentration with water. Vessels are filled with sand, active compound solution, an egg/larvae suspension of the southern root-knot nematode (Meloidogyne incognita) and lettuce seeds. The lettuce seeds germinate and the plants develop. The galls develop on the roots. After 14 days, the nematicidal efficacy in % is determined by the formation of galls. 100% means that no galls were found; 0% means that the number of galls on the treated plants corresponds to the untreated control.

Myzus persicae [2] = experiment: Myzus persicae oral test; assay type: in vivo; conditions: mixed population, oral through parafilm, 4 ppm, after 5 days
Method: Myzus persicae—Oral Test Solvent: 100 parts by weight of acetone To produce a suitable preparation of active compound, 1 part by weight of active compound is dissolved using the specified parts by weight of solvent and made up with water until the desired concentration is attained. 50 μl of the active compound preparation are transferred into microtitre plates and made up to a final volume of 200 μl with 150 μl of IPL41 insect medium (33%+15% sugar). Subsequently, the plates are sealed with parafilm, which a mixed population of green peach aphids (Myzus persicae) within a second microtitre plate is able to puncture and imbibe the solution through. After 5 days, the efficacy in % is determined. 100% means that all the aphids have been killed; 0% means that no aphids have been killed.

Spodoptera frugiperda = Spodoptera frugiperda spray test; assay type: in vivo; conditions: caterpillars on maize leaf discs, 100 g/ha, after 7 days
Method: Spodoptera frugiperda—Spray Test Solvent: 78.0 parts by weight of acetone • • 1.5 parts by weight of dimethylformamide Emulsifier: alkylaryl polyglycol ether To produce a suitable active compound preparation, 1 part by weight of active compound is dissolved using the stated parts by weight of solvent and made up with water containing an emulsifier concentration of 1000 ppm until the desired concentration is attained. To produce further test concentrations, the formulation is diluted with emulsifier-containing water. Leaf discs of maize (Zea mays) are sprayed with an active compound formulation of the desired concentration and, after drying, populated with caterpillars of the fall armyworm (Spodoptera frugiperda). After 7 days, the efficacy in % is determined. 100% means that all the caterpillars have been killed; 0% means that no caterpillar has been killed.

Diabrotica balteata = Diabrotica balteata spray test; assay type: in vivo; conditions: beetle larvae on germinated wheat grains, 160 μg/cavity, after 7 days
Method: Diabrotica balteata—Spray Test Solvent: 78 parts by weight of acetone • • 1.5 parts by weight of dimethylformamide Emulsifier: alkylaryl polyglycol ether To produce a suitable active compound preparation, 1 part by weight of active compound is dissolved using the stated parts by weight of solvent and made up with water containing an emulsifier concentration of 1000 ppm until the desired concentration is attained. To produce further test concentrations, the formulation is diluted with emulsifier-containing water. Pre-swollen wheat grains (Triticum aestivum) are incubated in a multiwell plate filled with agar and a little water for one day (5 seed grains per cavity). The germinated wheat grains are sprayed with an active compound preparation of the desired concentration. Subsequently, each cavity is infected with 10-20 beetle larvae of Diabrotica balteata. After 7 days, the efficacy in % is determined. 100% means that all wheat plants have grown as in the untreated, uninfected control; 0% means that no wheat plant has grown.

Myzus persicae [3] = experiment: Myzus persicae spray test; assay type: in vivo; conditions: Chinese cabbage leaf discs, all stages, 100 g/ha, after 5 days
Method: Myzus persicae—Spray Test Solvent: 78 parts by weight of acetone • • 1.5 parts by weight of dimethylformamide Emulsifier: alkylaryl polyglycol ether To produce a suitable active compound preparation, 1 part by weight of active compound is dissolved using the stated parts by weight of solvent and made up with water containing an emulsifier concentration of 1000 ppm until the desired concentration is attained. To produce further test concentrations, the formulation is diluted with emulsifier-containing water. Discs of Chinese cabbage leaves (Brassica pekinensis) infested by all stages of the green peach aphid (Myzus persicae) are sprayed with an active compound formulation of the desired concentration. After 5 days, the efficacy in % is determined. 100% means that all the aphids have been killed; 0% means that no aphids have been killed.

## Cn1c(C(F)(F)F)cc2nc(-c3nn4cc(C5(C#N)CC5)ccc4c3Br)n(C)c2c1=O
[1]
  chromatographic logP: 3.37

## N#CC1(c2ccc3c(Br)c(C(=O)O)nn3c2)CC1 [3-Bromo-6-(1-cyanocyclopropyl)pyrazolo[1,5-a]pyridine-2-carboxylic Acid]
[1]
  chromatographic logP: 1.55

## CCS(=O)(=O)c1c(-c2nc3cc(C(F)(F)F)n(C)c(=O)c3n2C)nn2cc(C3(C#N)CC3)ccc12 [Example I-01]
Ctenocephalides felis
  efficacy (kill in %): 97%
Meloidogyne incognita
  nematicidal efficacy (formation of galls): 100%
Myzus persicae [2]
  efficacy: 100%
[1]
  chromatographic logP: 2.8

## CCS(=O)(=O)c1c(-c2nc3cc(C(F)(F)F)n(C)c(=O)c3n2C)nn2cc(CC#N)ccc12 [Example I-02]
Myzus persicae [2]
  efficacy: 100%
Spodoptera frugiperda
  efficacy: 100%

## CCS(=O)(=O)c1c(-c2nc3cc(C(F)(F)F)n(C)c(=O)c3n2C)nn2cc(C3CC3)ccc12 [Example I-03]
Diabrotica balteata
  efficacy: 100%
Myzus persicae [3]
  efficacy: 90%
Myzus persicae [2]
  efficacy: 100%
Spodoptera frugiperda
  efficacy: 100%
